Data on 58 molecules can be found in ChEMBL document CHEMBL1201862, “PubChem BioAssay data set” (2004).

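How tested: cells in 96-well plates exposed to compound for 48 hours at five concentrations. GI50 is the concentration that inhibits growth by half.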 Activity calls are given as the source filed them. Cut-off read from the data, not from the text of the source: active = GI50 up to about 1.1 µM and inactive = higher.

Holding throughout (assay): NCI anticancer screen, dose series, 48 h
The subject of assay [1] is BT-549.
The subject of assay [2] is DMS-114.
Assay [3] relates to LXFL 529.
Assay [4] has as its system XF498.
Assay [5] concerns M19-MEL.
Assay [6] concerns DLD-1.
The test system of assay [7] is HOP-18.
The test system of assay [8] is KM-20L2.
Assay [9] deals with RXF 631.

As for `CCN(CC)CCn1c(=O)c2ccccc2n2c3c(=O)n(C)c(=O)n(C)c3nc12`, in assay [1], the GI50 was 1.19 µM (inactive).

As to `Brc1ccc(C[P+]2(c3ccccc3)CCCCC2)cc1.[O-][Cl+3]([O-])([O-])[O-]`, the GI50 in [2] is 39.5 µM (inactive); in [3], 25.1 µM (inactive); in assay [4], < 0.01 µM (active); in assay [5] it was 25.4 µM (inactive); in assay [6], > 100 µM (inactive); in assay [7], > 100 µM (inactive). Moreover, the GI50 in assay [8] is 61.2 µM (inactive).

For the molecule `COC(=O)C(Br)C1CCc2ccccc21` (stereo unspecified), the GI50 in [2] is > 100 µM (inactive); in assay [3] it was > 100 µM (inactive); in [5] it was > 100 µM (inactive); in [6], > 100 µM (inactive); in assay [7] it was 65.3 µM (inactive); in assay [8], > 100 µM (inactive). Also, in assay [9], the GI50 is > 100 µM (inactive).

Consider `Cc1c(Cl)ccc2c(=O)c3cccc(CC(=O)O)c3oc12`, for which the GI50 in assay [1] was 38.5 µM (inactive).

`Cc1ccc(N)c(S)c1`: the GI50 in assay [1] was 18.6 µM (inactive).

With `COP(=O)(OC)C(C)(C)NC(=O)NC(F)(F)F`, the GI50 in [1] was > 100 µM (inactive).

On to `COC(=O)CC(NC(=O)OCc1ccccc1)C(C(=O)OCc1ccccc1)C(C)(OC)OC` (stereo unspecified), for which the GI50 in assay [2] is 22.8 µM (inactive); in assay [3], 5.69 µM (inactive); in assay [4], 14.1 µM (inactive); in assay [5], 27.7 µM (inactive); in assay [6], 20.9 µM (inactive); in [8], 45.4 µM (inactive).

For the molecule `[N-]=[N+]=C(C(=O)C(=[N+]=[N-])C(=O)c1ccccc1)C(=O)c1ccccc1`, the GI50 in [1] is > 100 µM (inactive).

Take `Cc1cc(N2CCCCC2)nc2ccc(Cc3ccc4nc(N5CCCCC5)cc(C)c4c3)cc12`: the GI50 in assay [1] is > 100 µM (inactive).

For `Oc1nc2cc3nc(O)c(O)nc3cc2nc1O`, the GI50 in [1] was > 100 µM (inactive).

Consider `Cc1ccn2c(CCc3nnc4cc(C)ccn34)nnc2c1`, for which, in assay [1], the GI50 was > 100 µM (inactive).

Regarding `CN1C(Cl)=NS(=O)(=O)c2ccccc21`, in [1], the GI50 is > 100 µM (inactive).

For `CCCP1(=O)C=C(C)C(=C(Cl)Cl)C(C)=C1` (stereo unspecified), the GI50 in assay [2] was 36.1 µM (inactive); in assay [3] it was 30.1 µM (inactive); in assay [5], 47.9 µM (inactive); in [6], 67.3 µM (inactive); in [7] it was > 100 µM (inactive); in assay [8] it was 18.3 µM (inactive).

Turning to `CC1=CC[C@](C)(O)[C@@]2(C)CC[C@H]3C(=C(C)C)C(=O)C[C@]3(C)C[C@H]12`, the GI50 in assay [1] was 13.8 µM (inactive).

As for `Cc1cccc2c1CC(C1OC(=O)c3ccccc31)C2=O` (stereo unspecified), the GI50 in assay [1] was > 100 µM (inactive).

For `CC(=O)NC1C(OCc2ccccc2)OC(CO)C(O)C1OCC(=O)NC(C)C(=O)NC(CCC(=O)OCCNC(=O)c1cccc2cc3ccccc3nc12)C(N)=O` (stereo unspecified), the GI50 in assay [1] was 20.3 µM (inactive).

Regarding `Cc1cc(N2CCN(C)CC2)n2nc(-c3ccc(Cl)cc3)nc2n1`, in [1], the GI50 was 99.1 µM (inactive).

On to `CC(C)(C)OC(=O)NC(Cc1ccc(OCc2ccccc2)cn1)C(=O)N1CCCCC1` (stereo unspecified), for which, in [1], the GI50 is 24.5 µM (inactive).

As for `N=C(N)N/N=C/c1c(-c2ccccc2)nc2ccn3c(/C=N/N=C(N)N)c(-c4ccccc4)nc3n12`, the GI50 in assay [1] is 69 µM (inactive).

In the case of `CN(C)CCCNc1ccc2nnn3c4ccc(OC(=O)c5ccccc5)cc4c(=O)c1c23`, the GI50 in assay [1] is 16.8 µM (inactive).

With `O=C1c2ccccc2C(=O)N1c1nc(-c2ccc(Cl)cc2)cc(N2N=C(c3ccc(Br)cc3)CC2c2ccccc2)n1` (stereo unspecified), the GI50 in assay [1] is 3.21 µM (inactive).

Regarding `O=C(/C=C/c1ccc2c(c1)OCO2)NCc1ccco1`, the GI50 in [1] is 25.9 µM (inactive).

As for `O=C(O)C(=O)Cc1ccc2c(c1)OCO2`, in [1], the GI50 is > 100 µM (inactive).

Take `CCOC(=O)C1CCC(=O)N1C(=O)c1cccc(Cl)c1` (stereo unspecified): the GI50 in [1] was > 100 µM (inactive).

On to `NC(=O)NCCCC(NC(=O)OCCCCCn1ccc(=O)[nH]c1=O)C(=O)O` (stereo unspecified), for which, in [1], the GI50 is > 100 µM (inactive).

`N#CC1(C#N)NC(c2ccsc2)C(C#N)(C#N)NC1c1ccsc1` (stereo unspecified): the GI50 in [1] was > 100 µM (inactive).

With `COC(=O)CC1C=CC(C)(OC)OO1` (stereo unspecified), in assay [1], the GI50 is > 100 µM (inactive).

Regarding `COC(=O)c1ccccc1C1CN=NC12Cc1ccc3ccccc3c1C2=O` (stereo unspecified), in assay [1], the GI50 was > 100 µM (inactive).

In the case of `CCCCCCCC/C=C/CCCCCCCC1CC(O)C(=O)O1` (stereo unspecified), the GI50 in [1] is 28.9 µM (inactive).

For `O=C(NCCCCNCCCNC(=O)c1cc(-c2ccccc2)nc2ccccc12)c1cc(-c2ccccc2)nc2ccccc12`, the GI50 in assay [1] is 9.66 µM (inactive).

On to `O=c1c2c(sc3ccccc13)NCN(CCc1ccccc1)C2`, for which the GI50 in [1] was 23.1 µM (inactive).

As to `FC(F)(F)C1(c2ccccc2)SCc2nc3ccccc3n21` (stereo unspecified), the GI50 in assay [1] was > 100 µM (inactive).

In the case of `O=S1(=O)CCN(Cc2ccccn2)CC1`, the GI50 in assay [1] is > 100 µM (inactive).

Take `O=C1C=C(Nc2ccc(Cl)cc2Cl)c2ccccc2C1=O`: the GI50 in [2] is 23.6 µM (inactive); in [3], 27.2 µM (inactive); in [5], 13.5 µM (inactive); in [6] it was 44.5 µM (inactive); in assay [8] it was > 100 µM (inactive); in assay [9], 34.5 µM (inactive).

Turning to `N#CCCN(c1ccc(/C=N/c2ccc(C(=O)O)cc2)cc1)S(=O)(=O)c1ccccc1`, the GI50 in [2], in [3], in assay [4], in [5], in assay [6] and in assay [7] was > 100 µM (inactive) throughout. The GI50 in [8] is > 100 µM (inactive).

As for `Cc1nnc2c3nnc(C)n3c3ccccc3n12`, the GI50 in [2], in assay [3], in assay [4], in assay [6] and in assay [8] was > 100 µM (inactive) in each case.

Turning to `COc1ccc(N2C(=O)C3c4[nH]c5ccccc5c4C4CC(C)(C)CC(C)(C)C4C3C2=O)cc1` (stereo unspecified), the GI50 in assay [2] was 27.2 µM (inactive); in [3], 13.3 µM (inactive); in [4], 17.6 µM (inactive); in [5], 15.1 µM (inactive); in assay [6] it was 27 µM (inactive); in assay [7], 16.7 µM (inactive). The GI50 in assay [8] was 29.3 µM (inactive).

On to `CC(=O)C1=NN(c2ccccc2)C2(S1)SC(c1ccccc1)(c1ccccc1)c1ccccc12` (stereo unspecified), for which the GI50 in [2] is 32.5 µM (inactive); in [3] it was 15.2 µM (inactive); in [5] it was 47.8 µM (inactive); in [6], 61.4 µM (inactive); in assay [7], > 100 µM (inactive); in assay [8], > 100 µM (inactive).

Regarding `CC(=O)Nc1ccc(S(=O)(=O)N/N=C(\C)CN2C(=O)c3ccccc3C2=O)cc1`, the GI50 in assay [3], in [5], in [6], in [7] and in assay [8] was > 100 µM (inactive) throughout.

`COc1ccc2c(c1)N=C1CSC(c3cc([N+](=O)[O-])ccc3Cl)N1C2` (stereo unspecified): the GI50 in assay [1] is 26.2 µM (inactive).

In the case of `Clc1ccc(OCc2nnc3n2N=C(c2ccccc2)CS3)c(Cl)c1`, the GI50 is > 100 µM (inactive) in assay [2]; 5.6 µM (inactive) in assay [3]; > 100 µM (inactive) in [4]; > 100 µM (inactive) in assay [5]; 7.26 µM (inactive) in [6].

Consider `Cc1ccc(/C=C2\CN(C)CC3C(c4ccc(C)cc4)=C(C#N)C(=O)NC23)cc1` (stereo unspecified), for which the GI50 in assay [1] is > 50 µM (inactive).

`CCOC1c2cc(C(C)C)c(O)c(O)c2[C@@]23CCCC(C)(C)C2C1OC3=O` (stereo partly specified): the GI50 in assay [2] was 62.4 µM (inactive); in [3] it was > 100 µM (inactive); in assay [5], > 100 µM (inactive); in [6] it was 61.7 µM (inactive); in assay [8], > 100 µM (inactive).

In the case of `COc1c(C)c(C/C=C(\C)CCCCO)c(OC)c(OC)c1OC`, the GI50 in assay [1] is > 100 µM (inactive).

Take `CC(=O)OCC12CN(C#N)C3C4COC(CC41)C1(C(=O)N(C)c4ccccc41)C32` (stereo unspecified): the GI50 in assay [1] is 2.64 µM (inactive).

For `Cc1nn(C(=O)c2ccccc2O)c2c1C(c1ccc([N+](=O)[O-])cc1)SC(=N)N2` (stereo unspecified), the GI50 in [1] was 7.8 µM (inactive).

Take `C=C(C)C1CC2(C)C(C)CC(O)CC2C(OC(=O)C=C(C)C)C1O` (stereo unspecified): the GI50 in assay [1] is 42.4 µM (inactive).

For `CC1(C)OCC(COC(=O)C=[N+]=[N-])O1` (stereo unspecified), in assay [1], the GI50 was > 100 µM (inactive).

As to `Cc1ccc(NC(=O)C(=O)Cc2cccc[n+]2[O-])cc1C`, the GI50 in [2], in assay [3], in assay [4], in [5], in assay [6] and in assay [7] was > 100 µM (inactive) each time. In addition, the GI50 in assay [8] was > 100 µM (inactive).

With `Cc1n[nH]c(=O)n1/N=C/c1ccco1`, in assay [1], the GI50 was > 100 µM (inactive).

Consider `FC1(F)ON2CCc3ccccc3C2[C@H]1c1ccccc1` (stereo partly specified), for which, in [1], the GI50 was > 10 µM (inactive).

Regarding `NC(=O)CCC(NC(=O)C(F)(F)F)C(=O)O` (stereo unspecified), the GI50 in assay [2], in assay [3], in assay [4], in assay [5], in assay [6] and in assay [7] was > 100 µM (inactive) throughout. For the same molecule, the GI50 in [8] is > 100 µM (inactive).

As to `O=C(O)c1nc2ccc(C(F)(F)F)cc2nc1NCc1ccc(F)cc1`, the GI50 in assay [1] was 25.9 µM (inactive).

Turning to `CC1NCCC(CC(=O)O)C1CC(=O)O` (stereo unspecified), the GI50 in [1] is > 100 µM (inactive).

Regarding `CCOC(=O)COc1ccc(OCC(=O)OCC)c2c1C(=O)CCCC2=O`, the GI50 in assay [2], in [3], in assay [4], in assay [5], in [6] and in [7] was > 100 µM (inactive) each time. Also, the GI50 in [8] was > 100 µM (inactive).

With `C1=C\CCCCN2C[C@H]3CCCC/C=C\CCCCN4CC[C@@H]([C@H](CCCCCC/1)C4)[C@H](C3)C2`, the GI50 in assay [1] was 6.79 µM (inactive).

Turning to `CC1=C(C)C2(C#N)C(=O)N3C(=NC(c4ccccc4)NC3c3ccccc3)C2(C#N)C(c2ccccc2)N1` (stereo unspecified), the GI50 in [1] is > 100 µM (inactive).

For the molecule `COc1cc(C2=C(c3cc(OC)c4ccccc4c3OC)C(=O)c3ccccc3C2=O)c(OC)c2ccccc12`, the GI50 in assay [1] was > 100 µM (inactive).
